The target of assay [1] is Serine/threonine-protein kinase MARK2 (Homo sapiens) (UniProt Q7KZI7). As to the kind of experiment: Selectivity interaction (Ambit KINOMEscan and KiNATiv profiling in Jurkat cells) EUB0000090b MARK2. In kind it is cell-based. Particulars: at 1 µM.
Assay [2] has as its target Sodium-dependent noradrenaline transporter (Homo sapiens, UniProt P23975). Nature of the assay: Selectivity interaction (Panel of kinases, GPCRs, ion channels and transporters (enzymatic assay)) EUB0000266bCl SLC6A2.
For assay [3], the target named is Tyrosine-protein kinase SYK (Homo sapiens, UniProt P43405). As to the kind of experiment: Selectivity interaction (ActivX KiNativ screen (kinase selectivity in THP-1 cell lysates)) EUB0000639a SYK. It is filed as subcellular. Particulars: lysate, at 5 µM.
For assay [4], the target named is T1, Tyrosine-protein kinase receptor TYRO3 (Homo sapiens) (UniProt Q06418).
T1 sequence (whole entry): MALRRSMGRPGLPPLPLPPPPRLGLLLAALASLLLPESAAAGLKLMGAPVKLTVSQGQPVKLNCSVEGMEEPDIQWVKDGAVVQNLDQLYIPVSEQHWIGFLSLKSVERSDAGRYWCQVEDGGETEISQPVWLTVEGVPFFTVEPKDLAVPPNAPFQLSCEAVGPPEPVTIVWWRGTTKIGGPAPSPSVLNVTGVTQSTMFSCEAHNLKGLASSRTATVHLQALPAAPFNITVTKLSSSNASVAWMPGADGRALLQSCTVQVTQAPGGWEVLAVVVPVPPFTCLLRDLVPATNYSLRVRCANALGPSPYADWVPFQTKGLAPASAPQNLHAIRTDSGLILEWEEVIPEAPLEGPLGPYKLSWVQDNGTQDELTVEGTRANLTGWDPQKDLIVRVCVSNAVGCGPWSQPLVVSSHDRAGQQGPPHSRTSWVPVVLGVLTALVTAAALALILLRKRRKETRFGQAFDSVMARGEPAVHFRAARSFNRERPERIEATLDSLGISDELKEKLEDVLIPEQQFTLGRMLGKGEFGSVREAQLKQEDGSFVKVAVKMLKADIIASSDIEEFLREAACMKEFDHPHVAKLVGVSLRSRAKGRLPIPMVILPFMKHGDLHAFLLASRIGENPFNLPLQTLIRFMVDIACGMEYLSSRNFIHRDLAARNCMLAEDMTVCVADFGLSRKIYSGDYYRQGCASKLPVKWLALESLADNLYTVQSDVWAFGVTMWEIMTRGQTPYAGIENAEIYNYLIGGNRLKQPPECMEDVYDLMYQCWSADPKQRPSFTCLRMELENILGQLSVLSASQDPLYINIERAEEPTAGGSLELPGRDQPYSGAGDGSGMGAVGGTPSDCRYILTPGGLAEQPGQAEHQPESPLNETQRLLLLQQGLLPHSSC
As to the kind of experiment: Selectivity interaction (Kinase panel (Invitrogen)) EUB0000639a TYRO3. Particulars: at 200 nM.

In assay [5] the target is 5'-AMP-activated protein kinase catalytic subunit alpha-1 (Homo sapiens, UniProt Q13131). As to the kind of experiment: Selectivity interaction (ActivX KiNativ screen (kinase selectivity in THP-1 cell lysates)) EUB0000639a PRKAA1. It is filed as subcellular. Particulars: lysate, at 5 µM.
The target of assay [6] is SRSF protein kinase 2 (Homo sapiens) (UniProt P78362). As to the kind of experiment: Selectivity interaction (ActivX KiNativ screen (kinase selectivity in THP-1 cell lysates)) EUB0000639a SRPK2. Particulars: lysate. In kind it is subcellular.
Chain of SRSF protein kinase 2 (Homo sapiens) (P78362 whole entry, looked up): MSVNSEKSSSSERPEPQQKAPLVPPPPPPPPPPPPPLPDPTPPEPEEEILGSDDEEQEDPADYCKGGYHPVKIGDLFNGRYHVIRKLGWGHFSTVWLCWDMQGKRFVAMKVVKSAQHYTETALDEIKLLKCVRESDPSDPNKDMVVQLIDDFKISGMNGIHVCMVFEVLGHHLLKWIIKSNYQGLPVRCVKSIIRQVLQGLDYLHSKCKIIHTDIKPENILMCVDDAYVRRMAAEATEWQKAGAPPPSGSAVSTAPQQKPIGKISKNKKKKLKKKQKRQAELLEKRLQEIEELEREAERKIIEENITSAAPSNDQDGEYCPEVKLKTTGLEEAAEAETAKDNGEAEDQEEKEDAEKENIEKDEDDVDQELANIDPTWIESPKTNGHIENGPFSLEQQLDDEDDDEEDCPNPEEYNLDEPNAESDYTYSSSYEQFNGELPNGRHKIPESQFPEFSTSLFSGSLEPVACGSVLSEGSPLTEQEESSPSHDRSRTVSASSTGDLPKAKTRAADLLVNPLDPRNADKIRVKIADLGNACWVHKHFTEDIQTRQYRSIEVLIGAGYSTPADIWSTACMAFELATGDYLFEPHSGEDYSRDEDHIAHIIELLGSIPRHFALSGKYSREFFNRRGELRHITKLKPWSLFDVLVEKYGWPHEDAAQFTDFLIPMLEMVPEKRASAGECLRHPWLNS
Assay [7] concerns the target Transcription intermediary factor 1-alpha (Homo sapiens) (UniProt O15164). Nature of the assay: Selectivity interaction (Human bromodomain panel (DSF assay)) EUB0000233b TRIM24.
Assay [8] is described as follows: Selectivity interaction (PWWP, WD40, and Tudor domain panel (DSLS measurements, literature)) EUB0000270b WDR20.
Assay [9] deals with Histone-lysine N-methyltransferase, H3 lysine-36 specific (Homo sapiens) (UniProt Q96L73). Nature of the assay: Selectivity interaction (Transferase panel (protein, RNA, and DNA methyltransferases. and EP300 (acetyltransferase))) EUB0000270b NSD1.
Chain of Histone-lysine N-methyltransferase, H3 lysine-36 specific (Homo sapiens) (Q96L73 whole entry): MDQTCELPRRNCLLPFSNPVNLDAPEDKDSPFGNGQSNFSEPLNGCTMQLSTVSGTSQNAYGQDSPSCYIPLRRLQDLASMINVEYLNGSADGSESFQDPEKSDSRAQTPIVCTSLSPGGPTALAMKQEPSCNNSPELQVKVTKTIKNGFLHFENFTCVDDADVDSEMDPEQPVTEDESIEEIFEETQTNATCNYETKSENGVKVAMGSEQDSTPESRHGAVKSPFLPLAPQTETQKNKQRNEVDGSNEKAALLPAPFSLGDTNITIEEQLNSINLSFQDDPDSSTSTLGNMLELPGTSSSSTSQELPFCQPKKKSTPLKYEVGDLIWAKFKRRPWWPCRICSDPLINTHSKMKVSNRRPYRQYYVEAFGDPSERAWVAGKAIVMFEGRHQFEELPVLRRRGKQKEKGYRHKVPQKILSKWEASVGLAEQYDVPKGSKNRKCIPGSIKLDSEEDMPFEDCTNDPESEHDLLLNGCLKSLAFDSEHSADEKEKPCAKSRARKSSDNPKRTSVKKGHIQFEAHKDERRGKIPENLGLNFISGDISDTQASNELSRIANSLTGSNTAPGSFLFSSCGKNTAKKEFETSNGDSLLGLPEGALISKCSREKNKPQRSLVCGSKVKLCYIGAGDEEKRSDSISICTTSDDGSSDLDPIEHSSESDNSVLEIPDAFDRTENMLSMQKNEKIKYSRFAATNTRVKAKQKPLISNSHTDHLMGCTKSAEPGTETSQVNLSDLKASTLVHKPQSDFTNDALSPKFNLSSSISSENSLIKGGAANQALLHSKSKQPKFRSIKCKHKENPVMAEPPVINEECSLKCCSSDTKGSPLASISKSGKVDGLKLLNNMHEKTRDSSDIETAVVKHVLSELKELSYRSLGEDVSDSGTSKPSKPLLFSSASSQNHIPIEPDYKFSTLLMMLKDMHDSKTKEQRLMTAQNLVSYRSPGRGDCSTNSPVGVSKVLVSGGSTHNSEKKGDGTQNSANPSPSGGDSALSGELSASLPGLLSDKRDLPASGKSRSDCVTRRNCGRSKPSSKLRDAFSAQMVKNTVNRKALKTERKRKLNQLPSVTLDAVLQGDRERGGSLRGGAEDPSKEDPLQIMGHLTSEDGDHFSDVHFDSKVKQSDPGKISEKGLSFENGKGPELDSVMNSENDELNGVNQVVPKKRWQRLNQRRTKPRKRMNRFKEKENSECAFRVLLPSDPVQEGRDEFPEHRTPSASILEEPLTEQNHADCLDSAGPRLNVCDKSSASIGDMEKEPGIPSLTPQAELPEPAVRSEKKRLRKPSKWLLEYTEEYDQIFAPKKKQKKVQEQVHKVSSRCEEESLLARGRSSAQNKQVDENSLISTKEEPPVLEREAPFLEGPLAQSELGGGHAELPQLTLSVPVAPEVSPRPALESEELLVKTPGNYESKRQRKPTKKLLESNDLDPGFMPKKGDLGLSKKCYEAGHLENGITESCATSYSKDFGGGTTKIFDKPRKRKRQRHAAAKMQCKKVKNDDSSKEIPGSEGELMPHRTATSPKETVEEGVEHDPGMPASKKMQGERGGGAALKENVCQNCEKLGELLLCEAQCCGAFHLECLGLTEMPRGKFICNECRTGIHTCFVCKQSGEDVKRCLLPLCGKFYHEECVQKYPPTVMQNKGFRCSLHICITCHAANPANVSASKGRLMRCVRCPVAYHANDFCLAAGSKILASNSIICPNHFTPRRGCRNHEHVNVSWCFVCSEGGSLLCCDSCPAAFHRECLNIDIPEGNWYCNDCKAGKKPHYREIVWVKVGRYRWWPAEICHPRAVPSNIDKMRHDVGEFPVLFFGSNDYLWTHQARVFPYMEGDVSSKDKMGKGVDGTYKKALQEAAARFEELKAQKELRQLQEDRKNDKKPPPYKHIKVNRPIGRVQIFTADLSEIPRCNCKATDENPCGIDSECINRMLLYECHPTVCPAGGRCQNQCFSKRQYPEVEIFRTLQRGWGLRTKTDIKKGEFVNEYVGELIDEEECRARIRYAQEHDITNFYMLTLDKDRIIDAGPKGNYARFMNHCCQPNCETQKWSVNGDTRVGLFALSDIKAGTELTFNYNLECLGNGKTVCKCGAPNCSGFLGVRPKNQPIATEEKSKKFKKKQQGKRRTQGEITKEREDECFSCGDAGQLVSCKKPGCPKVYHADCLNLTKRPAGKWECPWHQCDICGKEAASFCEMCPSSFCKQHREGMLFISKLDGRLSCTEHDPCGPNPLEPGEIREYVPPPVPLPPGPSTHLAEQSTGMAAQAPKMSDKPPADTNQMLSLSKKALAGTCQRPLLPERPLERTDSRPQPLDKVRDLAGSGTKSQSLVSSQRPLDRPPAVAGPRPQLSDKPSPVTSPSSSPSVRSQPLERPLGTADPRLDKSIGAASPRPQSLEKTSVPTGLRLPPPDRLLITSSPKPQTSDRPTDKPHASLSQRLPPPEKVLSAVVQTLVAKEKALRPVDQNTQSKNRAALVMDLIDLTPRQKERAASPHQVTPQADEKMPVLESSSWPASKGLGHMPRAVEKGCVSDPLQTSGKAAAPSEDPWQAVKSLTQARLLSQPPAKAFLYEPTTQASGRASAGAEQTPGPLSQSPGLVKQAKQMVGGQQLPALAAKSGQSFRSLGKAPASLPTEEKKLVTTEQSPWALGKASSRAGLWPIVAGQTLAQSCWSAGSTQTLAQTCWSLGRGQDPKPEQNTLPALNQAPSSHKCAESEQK
Assay [10] has as its target T2, cGMP-dependent protein kinase 1 (Homo sapiens) (UniProt Q13976).
T2 sequence (whole entry): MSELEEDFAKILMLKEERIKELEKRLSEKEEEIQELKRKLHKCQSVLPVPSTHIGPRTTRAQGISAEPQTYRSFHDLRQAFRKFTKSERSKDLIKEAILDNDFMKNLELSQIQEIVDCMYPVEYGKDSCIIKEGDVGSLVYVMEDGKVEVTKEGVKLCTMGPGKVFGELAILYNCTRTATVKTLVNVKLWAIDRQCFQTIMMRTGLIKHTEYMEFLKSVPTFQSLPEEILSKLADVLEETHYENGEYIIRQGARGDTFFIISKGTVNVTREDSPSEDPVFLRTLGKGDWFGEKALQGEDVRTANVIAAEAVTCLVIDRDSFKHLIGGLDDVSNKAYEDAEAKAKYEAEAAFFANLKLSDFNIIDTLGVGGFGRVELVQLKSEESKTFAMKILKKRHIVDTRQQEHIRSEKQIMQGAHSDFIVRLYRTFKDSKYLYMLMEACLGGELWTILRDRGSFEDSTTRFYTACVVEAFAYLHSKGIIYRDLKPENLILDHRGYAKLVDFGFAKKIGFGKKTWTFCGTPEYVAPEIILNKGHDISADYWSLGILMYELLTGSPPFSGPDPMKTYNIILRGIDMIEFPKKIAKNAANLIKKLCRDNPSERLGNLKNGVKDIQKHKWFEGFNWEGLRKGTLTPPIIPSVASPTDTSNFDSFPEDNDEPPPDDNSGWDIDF
Nature of the assay: Selectivity interaction (KinomeScan (DiscoverX)) EUB0000092b PRKG1. Particulars: at 10 µM.

The target of assay [11] is Tyrosine-protein kinase receptor Tie-1 (Homo sapiens) (UniProt P35590). Nature of the assay: Selectivity interaction (KinomeScan (DiscoverX)) EUB0000618a TIE1. Particulars: at 10 µM.
For assay [12], the target named is T3, Activin receptor type-1B (Homo sapiens) (UniProt P36896).
T3 sequence (whole entry): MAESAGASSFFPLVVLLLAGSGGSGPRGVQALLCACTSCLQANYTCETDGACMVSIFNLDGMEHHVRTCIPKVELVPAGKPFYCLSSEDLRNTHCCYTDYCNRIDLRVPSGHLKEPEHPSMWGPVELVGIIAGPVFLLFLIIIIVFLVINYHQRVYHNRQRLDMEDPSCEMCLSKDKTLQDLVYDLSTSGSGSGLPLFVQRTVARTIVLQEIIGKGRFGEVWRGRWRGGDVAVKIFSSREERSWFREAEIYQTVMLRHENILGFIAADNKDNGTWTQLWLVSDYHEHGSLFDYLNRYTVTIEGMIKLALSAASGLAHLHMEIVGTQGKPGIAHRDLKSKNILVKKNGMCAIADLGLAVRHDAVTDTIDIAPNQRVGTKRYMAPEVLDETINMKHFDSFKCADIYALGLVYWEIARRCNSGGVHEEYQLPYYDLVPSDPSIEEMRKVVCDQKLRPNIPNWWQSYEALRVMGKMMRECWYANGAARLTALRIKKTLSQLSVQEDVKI
Nature of the assay: Selectivity interaction (KinomeScan (DiscoverX)) EUB0000595a ACVR1B. Particulars: at 10 µM.

SMILES strings stand for the structures. Some results are limits rather than exact numbers.

Chain of Serine/threonine-protein kinase MARK2 (Homo sapiens) (Q7KZI7 whole entry): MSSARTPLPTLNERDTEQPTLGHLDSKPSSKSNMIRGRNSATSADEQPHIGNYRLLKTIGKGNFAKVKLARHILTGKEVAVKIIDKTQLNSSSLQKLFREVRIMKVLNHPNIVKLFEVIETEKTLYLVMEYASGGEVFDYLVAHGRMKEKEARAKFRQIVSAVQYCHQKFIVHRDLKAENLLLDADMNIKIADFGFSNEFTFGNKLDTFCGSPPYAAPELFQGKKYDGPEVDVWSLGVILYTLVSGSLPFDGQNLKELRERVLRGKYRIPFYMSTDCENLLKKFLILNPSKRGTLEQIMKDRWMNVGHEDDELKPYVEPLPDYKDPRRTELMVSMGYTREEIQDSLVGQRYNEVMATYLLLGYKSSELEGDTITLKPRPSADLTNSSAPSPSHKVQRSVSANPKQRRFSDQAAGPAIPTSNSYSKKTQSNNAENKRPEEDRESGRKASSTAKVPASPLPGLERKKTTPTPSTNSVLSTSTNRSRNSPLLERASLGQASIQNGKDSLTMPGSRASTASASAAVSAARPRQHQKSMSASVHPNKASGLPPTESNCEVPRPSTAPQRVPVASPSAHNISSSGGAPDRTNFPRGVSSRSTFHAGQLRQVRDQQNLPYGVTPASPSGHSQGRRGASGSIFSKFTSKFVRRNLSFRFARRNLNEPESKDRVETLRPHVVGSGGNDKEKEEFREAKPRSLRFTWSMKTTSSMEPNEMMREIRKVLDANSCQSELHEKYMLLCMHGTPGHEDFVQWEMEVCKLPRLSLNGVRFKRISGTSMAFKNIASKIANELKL
Chain of Sodium-dependent noradrenaline transporter (P23975 whole entry): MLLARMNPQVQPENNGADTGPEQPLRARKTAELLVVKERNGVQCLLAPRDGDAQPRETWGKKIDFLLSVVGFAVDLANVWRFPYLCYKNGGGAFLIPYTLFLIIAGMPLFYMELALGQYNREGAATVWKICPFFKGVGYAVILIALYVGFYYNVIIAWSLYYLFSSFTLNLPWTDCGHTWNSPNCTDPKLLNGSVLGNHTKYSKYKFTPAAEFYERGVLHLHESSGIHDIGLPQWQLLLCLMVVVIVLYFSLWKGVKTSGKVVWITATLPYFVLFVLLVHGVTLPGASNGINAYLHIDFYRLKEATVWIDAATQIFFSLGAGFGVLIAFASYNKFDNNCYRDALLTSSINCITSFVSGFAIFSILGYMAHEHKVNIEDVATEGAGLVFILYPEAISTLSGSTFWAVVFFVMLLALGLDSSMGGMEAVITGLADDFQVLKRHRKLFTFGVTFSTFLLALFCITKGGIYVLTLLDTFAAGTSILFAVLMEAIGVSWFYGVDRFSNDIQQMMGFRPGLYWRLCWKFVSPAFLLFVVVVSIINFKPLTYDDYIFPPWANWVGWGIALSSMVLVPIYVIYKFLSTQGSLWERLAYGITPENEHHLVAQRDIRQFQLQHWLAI

For the compound `CN(C)C/C=C/C(=O)Nc1ccc(C(=O)N2CCCC(Nc3ncc(Cl)c(-c4c[nH]c5ccccc45)n3)C2)cc1` (configuration not stated), in [1], the % of control is 78%.
Compound `CCn1c(-c2nc3cc(C(=O)N4CCCC(N)C4)ccc3n2C)cc2ccccc21` (configuration not stated) had a pXC50 in [2] of 4.4 M.
`CC[C@@H]1[C@H](F)C(=O)N[C@@H]1COc1nccc2cc(C(N)=O)c(OC)cc12` [ZIMLOVISERTIB]: the % of inhibition was -8.7% in assay [3]; 5.87% in [4]; 18.6% in [5]; 6.9% in assay [6] (at 0.01 µM); -23% in assay [6] (at 0.04 µM); -5.5% in [6] (at 0.2 µM). The % of inhibition turned out to be 11.7% in assay [6] (at 1 µM) and 19.9% in assay [6] (at 5 µM).
As for `CN(C)CCCOc1ccc(-c2cc(NCCCn3cccn3)nc(S(C)(=O)=O)n2)cc1`, in assay [7], the dTM is below 2 K.
The compound `Cc1cc(CN)cc(C)c1-c1ncn(C)c1-c1cncn1C` showed a dTagg in assay [8] of 0 K. The % activity is above 90% in assay [9] (at 1 µM) and above 80% in [9] (at 10 µM).
Compound `CCC(=O)N1CCN(c2ccc(-n3c(=O)ccc4cnc5ccc(-c6cnc7ccccc7c6)cc5c43)cc2C(F)(F)F)CC1` came in with a % of control in assay [10] of 86%.
In assay [11], `O[C@H]1CC[C@H](Nc2ncc3nc(Nc4c(F)cc(F)cc4F)n([C@H]4CCOC4)c3n2)CC1` returned a % of control of 100%.
The compound `COCC(=O)NC/C=C/c1ccc2ncnc(Nc3ccc(Oc4ccc(C)nc4)c(C)c3)c2c1` [CP-724714] registered a % of control in [12] of 100%.

Source of the values: ChEMBL document CHEMBL5465560, “Selectivity Literature for EUbOPEN Chemogenomic Library” (2024).
